Here are results for 17 compounds from patent US8299048B2, “Hexahydrocyclopentyl[f]indazole sulfonamides and derivatives thereof as selective glucocorticoid receptor modulators” (Merck Sharp & Dohme Corp., priority 2008, dated 2012).

In general, Ki refers to a measure of affinity in units of concentration, obtained from inhibition or displacement. Lower therefore signals higher affinity.

In the assay the target is T1, glucocorticoid receptor (Homo sapiens, UniProt P04150).
T1 construct: endogenous in cells
T1 sequence (P04150 1-777): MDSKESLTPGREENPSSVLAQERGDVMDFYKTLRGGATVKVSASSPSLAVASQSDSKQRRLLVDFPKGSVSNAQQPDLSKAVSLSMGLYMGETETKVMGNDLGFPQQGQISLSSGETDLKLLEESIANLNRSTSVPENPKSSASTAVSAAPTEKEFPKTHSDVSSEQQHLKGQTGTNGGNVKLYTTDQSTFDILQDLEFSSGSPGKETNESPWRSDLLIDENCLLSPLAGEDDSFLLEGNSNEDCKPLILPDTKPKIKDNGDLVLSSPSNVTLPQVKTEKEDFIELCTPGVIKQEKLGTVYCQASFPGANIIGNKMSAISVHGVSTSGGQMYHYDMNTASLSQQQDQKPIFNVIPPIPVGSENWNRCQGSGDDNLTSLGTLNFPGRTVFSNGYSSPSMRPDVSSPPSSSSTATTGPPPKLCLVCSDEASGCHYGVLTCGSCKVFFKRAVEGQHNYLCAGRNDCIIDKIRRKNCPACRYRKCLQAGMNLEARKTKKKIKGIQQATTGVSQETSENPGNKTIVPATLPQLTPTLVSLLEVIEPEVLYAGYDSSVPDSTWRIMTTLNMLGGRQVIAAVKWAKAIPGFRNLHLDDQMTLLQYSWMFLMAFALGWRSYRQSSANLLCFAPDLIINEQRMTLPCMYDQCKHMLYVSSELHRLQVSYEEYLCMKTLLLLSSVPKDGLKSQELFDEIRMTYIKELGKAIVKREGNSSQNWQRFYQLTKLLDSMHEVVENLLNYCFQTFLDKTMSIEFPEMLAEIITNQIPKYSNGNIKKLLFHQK
Put plainly: Ligand binding assay (GR BIND). On the procedure:
• Materials: • Binding Buffer: TEGM (10 mM Tris-HCl, 1 mM EDTA, 10% glycerol, 1 mM beta-mecaptoethanol, 10 mM Sodium Molybdate, pH 7.2) • 50% HAP Slurry: Calbiochem Hydroxylapatite, Fast Flow, in 10 mM Tris, pH 8.0 and 1 mM EDTA. • Wash Buffer: 40 mM Tris, pH7.5, 100 mM KCl, 1 mM EDTA and 1 mM EGTA.
Phenol red-free Trypsin-EDTA is diluted in the same PBS1:10. The cell layers are rinsed with 1× Trypsin, extra Trypsin is poured out, and the cell layers are incubated at 37° C. for ˜2 min. The flask is tapped and checked for signs of cell detachment. Once the cells begin to slide off the flask, the complete media is added. The cells are counted at this point, then diluted to the appropriate concentration and split into flasks or dishes for further culturing (Usually 1:3 to 1:6 dilution).
When the cells are 70 to 85% confluent, they are detached as described above, and collected by centrifuging at 1000 g for 10 minutes at 4° C. The cell pellet is washed twice with TEGM (10 mM Tris-HCl, 1 mM EDTA, 10% glycerol, 1 mM beta-mercaptoethanol, 10 mM Sodium Molybdate, pH 7.2). After the final wash, the cells are resuspended in TEGM at a concentration of 10^7 cells/mL. The cell suspension is snap frozen in liquid nitrogen or ethanol/dry ice bath and transferred to −80° C. freezer on dry ice. Before setting up the binding assay, the frozen samples are left on ice-water to just thaw (˜1 hr). Then the samples are centrifuged at 12,500 g to 20,000 g for 30 min at 4° C. The supernatant is used to set-up assay right away. If using 50 μL of supernatant, the test compound can be prepared in 50 μL of the TEGM buffer.
1×TEGM buffer is prepared, and the isotope-containing assay mixture is prepared in the following order: EtOH (2% final concentration in reaction), 3H-DEX (Amersham Biosciences) and 1×TEGM. [e.g. For 100 samples, 200 μL (100×2) of EtOH+4.25 μL of 1:10 ^3H—Dex stock+2300 μL (100×23) 1×TEGM]. The compound is serially diluted, e.g., if starting final conc. is 1 μM, and the compound is in 25 μL of solution, for duplicate samples, 75 μL of 4×1 μM solution is made and 3 μL of 100 μM is added to 72 μL of buffer, and 1:5 serial dilution.
25 μL of ^3H-DEX (6 nM) trace and 25 μL compound solution are first mixed together, followed by addition of 50 μL receptor solution. The reaction is gently mixed, spun briefly at about 200 rpm and incubated at 4° C. overnight. 100 μL of 50% HAP slurry is prepared and added to the incubated reaction which is then vortexed and incubated on ice for 5 to 10 minutes. The reaction mixture is vortexed twice more to resuspend HAP while incubating reaction. The samples in 96-well format are then washed in wash buffer using The FilterMate™ Universal Harvester plate washer (Packard). The washing process transfers HAP pellet containing ligand-bound expressed receptor to Unifilter-96 GF/B filter plate (Packard). The HAP pellet on the filter plate is incubated with 50 μL of MICROSCINT (Packard) scintillint for 30 minutes before being counted on the TopCount microscintillation counter (Packard). […] are calculated using DEX as a reference.
The compound `C[C@]12Cc3cnn(-c4ccc(F)cc4)c3C=C1CC[C@@H]2CN(CC1CC1)S(=O)(=O)c1cc(C(F)(F)F)ccc1Cl` [Example 5, 2-chloro-N-(cyclopropylmethyl)-N-{[(4αR,5S)-1-(4-fluorophenyl)-4α-methyl-1,4,4α,5,6,7-hexahydrocyclopenta[f]indazol-5-yl]methyl}-5-(trifluoromethyl)benzenesulfonamide] showed a Ki of 1 nM.
Take `CC(=O)Nc1ccc(S(=O)(=O)N(CC2CC2)C[C@H]2CCC3=Cc4c(cnn4-c4ccc(F)cc4)C[C@@]32C)cc1` [Example 6, N-{4-[((cyclopropylmethyl){[(4αR,5S)-1-(4-fluorophenyl)-4α-methyl-1,4,4α,5,6,7-hexahydrocyclopenta[f]indazol-5-yl]methyl}amino)sulfonyl]phenyl}acetamide]: the affinity corresponds to a Ki of 0.9 nM.
With `Cc1nn(C)c(Cl)c1S(=O)(=O)N(CC1CC1)C[C@H]1CCC2=Cc3c(cnn3-c3ccc(F)cc3)C[C@@]21C` [Example 7], the Ki turned out to be 0.4 nM.
The compound `CN1CCOc2cc(S(=O)(=O)N(CC3CC3)C[C@H]3CCC4=Cc5c(cnn5-c5ccc(F)cc5)C[C@@]43C)ccc21` [Example 8, N-(cyclopropylmethyl)-N-{[(4αR,5S)-1-(4-fluorophenyl)-4α-methyl-1,4,4α,5,6,7-hexahydrocyclopenta[f]indazol-5-yl]methyl}-4-methyl-3,4-dihydro-2H-1,4-benzoxazine-7-sulfonamide] gave an inhibition constant (Ki) of 1.9 nM.
On to `CCCCCc1ccc(S(=O)(=O)N(CC2CC2)C[C@H]2CCC3=Cc4c(cnn4-c4ccc(F)cc4)C[C@@]32C)cc1` [Example 9, N-(cyclopropylmethyl)-N-{[(4αR,5S)-1-(4-fluorophenyl)-4α-methyl-1,4,4α,5,6,7-hexahydrocyclopenta[f]indazol-5-yl]methyl}-4-pentylbenzenesulfonamide], for which the affinity corresponds to a Ki of 2.2 nM. The Ki values of the last two compounds are within 1.5-fold of each other.
Under `C[C@]12Cc3cnn(-c4ccc(F)cc4)c3C=C1CC[C@@H]2CN(CC1CC1)S(=O)(=O)c1ccc(-c2ccccc2)cc1` [Example 10, N-(cyclopropylmethyl)-N-{[(4αR,5S)-1-(4-fluorophenyl)-4α-methyl-1,4,4α,5,6,7-hexahydrocyclopenta[f]indazol-5-yl]methyl}biphenyl-4-sulfonamide] stands 0.7 nM; under `Cc1noc(C)c1S(=O)(=O)N(CC1CC1)C[C@H]1CCC2=Cc3c(cnn3-c3ccc(F)cc3)C[C@@]21C` [Example 11, N-(cyclopropylmethyl)-N-{[(4αR,5S)-1-(4-fluorophenyl)-4α-methyl-1,4,4α,5,6,7-hexahydrocyclopenta[f]indazol-5-yl]methyl}-3,5-dimethylisoxazole-4-sulfonamide], 0.7 nM; under `CCCS(=O)(=O)N(CCOC)C[C@H]1CCC2=Cc3c(cnn3-c3ccc(F)cc3)C[C@@]21C` [Example 95, N-{[(4αR,5S)-1-(4-fluorophenyl)-4α-methyl-1,4,4α,5,6,7-hexahydrocyclopenta[f]indazol-5-yl]methyl}-N-(2-methoxyethyl)propane-1-sulfonamide], 5.2 nM.
In the case of `COCCN(C[C@H]1CCC2=Cc3c(cnn3-c3ccc(F)cc3)C[C@@]21C)S(C)(=O)=O` [Example 96, N-{[(4αR,5S)-1-(4-fluorophenyl)-4α-methyl-1,4,4α,5,6,7-hexahydrocyclopenta[f]indazol-5-yl]methyl}-N-(2-methoxyethyl)methanesulfonamide] it was 1.1 nM.
In the case of `COCCN(C[C@H]1CCC2=Cc3c(cnn3-c3ccc(F)cc3)C[C@@]21C)S(=O)(=O)CC(F)(F)F` [Example 97, 2,2,2-trifluoro-N-{[(4αR,5S)-1-(4-fluorophenyl)-4α-methyl-1,4,4α,5,6,7-hexahydrocyclopenta[f]indazol-5-yl]methyl}-N-(2-methoxyethyl)ethanesulfonamide] it was 0.3 nM.
On to `Cn1cc(S(=O)(=O)N(CCc2ccccc2F)C[C@H]2CCC3=Cc4c(cnn4-c4ccc(F)cc4)C[C@@]32C)c(C(F)(F)F)n1` [Example 98, N-[2-(2-fluorophenyl)ethyl]-N-{[(4αR,5S)-1-(4-fluorophenyl)-4α-methyl-1,4,4α,5,6,7-hexahydrocyclopenta[f]indazol-5-yl]methyl}-1-methyl-3-(trifluoromethyl)-1H-pyrazole-4-sulfonamide], for which the affinity, expressed as Ki, was 1.5 nM.
In turn, `C[C@]12Cc3cnn(-c4ccc(F)cc4)c3C=C1CC[C@@H]2CN(CCc1ccccc1F)S(=O)(=O)c1ccccc1C(F)(F)F` [Example 99, N-[2-(2-fluorophenyl)ethyl]-N-{[(4αR,5S)-1-(4-fluorophenyl)-4α-methyl-1,4,4α,5,6,7-hexahydrocyclopenta[f]indazol-5-yl]methyl}-2-(trifluoromethyl)benzenesulfonamide] registered an inhibitory constant (Ki) of 1.4 nM. The Ki values of the last two compounds are within 1.5-fold of each other.
Under `C[C@]12Cc3cnn(-c4ccc(F)cc4)c3C=C1CC[C@@H]2CN(CCc1ccccc1F)S(=O)(=O)c1ccccc1Cl` [Example 100, 2-chloro-N-[2-(2-fluorophenyl)ethyl]-N-{[(4αR,5S)-1-(4-fluorophenyl)-4α-methyl-1,4,4α,5,6,7-hexahydrocyclopenta[f]indazol-5-yl]methyl}benzenesulfonamide] stands 2.1 nM.
In the case of `CCCCS(=O)(=O)N(CCc1ccccc1F)C[C@H]1CCC2=Cc3c(cnn3-c3ccc(F)cc3)C[C@@]21C` [Example 102, N-[2-(2-fluorophenyl)ethyl]-N-{[(4αR,5S)-1-(4-fluorophenyl)-4α-methyl-1,4,4α,5,6,7-hexahydrocyclopenta[f]indazol-5-yl]methyl}butane-1-sulfonamide] it was 2.6 nM; in that of `CC(C)CS(=O)(=O)N(CCc1ccccc1F)C[C@H]1CCC2=Cc3c(cnn3-c3ccc(F)cc3)C[C@@]21C` [Example 103, N-[2-(2-fluorophenyl)ethyl]-N-{[(4αR,5S)-1-(4-fluorophenyl)-4α-methyl-1,4,4α,5,6,7-hexahydrocyclopenta[f]indazol-5-yl]methyl}-2-methylpropane-1-sulfonamide], 1.7 nM; in that of `CCCCCCCCS(=O)(=O)N(CCc1ccccc1F)C[C@H]1CCC2=Cc3c(cnn3-c3ccc(F)cc3)C[C@@]21C` [Example 104, N-[2-(2-fluorophenyl)ethyl]-N-{[(4αR,5S)-1-(4-fluorophenyl)-4α-methyl-1,4,4α,5,6,7-hexahydrocyclopenta[f]indazol-5-yl]methyl}octane-1-sulfonamide], 9.8 nM.
On to `C[C@]12Cc3cnn(-c4ccc(F)cc4)c3C=C1CC[C@@H]2CN(CCc1ccccc1F)S(=O)(=O)Cc1ccc(Cl)cc1Cl` [Example 105, 1-(2,4-dichlorophenyl)-N-[2-(2-fluorophenyl)ethyl]-N-{[(4αR,5S)-1-(4-fluorophenyl)-4α-methyl-1,4,4α,5,6,7-hexahydrocyclopenta[f]indazol-5-yl]methyl}methanesulfonamide], for which the inhibition constant (Ki) worked out at 1.7 nM.
